Experimental data from patent US9789046B2, “Water-based resin nail polish” (LES FINS NETWORK TECHNOLOGY CO., LTD., priority 2015, dated 2017).
In brackets after ≈: the same amount, converted by molar mass.

Columns and labels:
Assay in all cases: Antifungal activity experiment, 96-pore plate, MTT, OD 570 nm
Type in all cases: cell-based
Details in all cases: MH medium, 37° C., 24 h, read-out: semi-inhibition rate MIC50
[1] = system: Trichophyton gypsum
Method: (§1) Bacteria (Trichophyton rubrum, Trichophyton gypsum and flocculent trichomementagrophytes) are suspended in an MH culture medium, the dispersion concentration is about 10^5 cfu·mL−1, the bacterial solution is added onto 96-pore plate (100 μL of the bacterial solution is added into each pore), the culture medium is used as a blank control, DMSO is used for substituting a test material as a negative control, and itraconazole (Xian-Janssen Pharmaceutical Ltd.) is used as a positive control. […] The 96-pore plate is placed into an incubator at 37° C. to be cultured for 24 h, then 25 μL of the prepared solution containing 4 mg of PBS of MTT for each mL is added into each hole, and the solution is cultured for 4 h under a same condition, 100 μL of SDS lysis solution (including 95 mL of triple-distilled, 10 g of SDS, 5 mL of isopropyl alcohol and 0.1 mL of concentrated hydrochloric acid) is added into each pore and then is cultured for 12 h. An enzyme labeling instrument is used for determining an OD value at 570 nm, and a percent inhibition rate is calculated according to the formula equation: […]

[2] = system: Trichophyton rubrum
Method: as §1

[3] = system: flocculent trichomementagrophytes
Method: as §1

| MIC50 [1] [µg/mL] | MIC50 [2] [µg/mL] | MIC50 [3] [µg/mL] | SMILES |
| --- | --- | --- | --- |
| 0.6 | 0.63 | 0.82 | COc1ccc(-c2cc(=O)c3cc(O)c(OC)c4c3n2OC2OC(C)=C(O)C=C2C4)cc1 (stereo not drawn) [compound of formula I] |
| 0.7 (≈ 0.992 µM) | 0.63 (≈ 0.893 µM) | 0.65 (≈ 0.921 µM) | CCC(C)n1ncn(-c2ccc(N3CCN(c4ccc(OCC5COC(Cn6cncn6)(c6ccc(Cl)cc6Cl)O5)cc4)CC3)cc2)c1=O (stereo not drawn) [itraconazole] |
